Results published in the NIST ThermoML archive (doi:10.1021/je0499317).

Test: excess molar enthalpy (molar enthalpy of mixing); xn = mol fraction of the nth substance listed
Settings: 298.15 K, 101.33 kPa, Liquid

CCCCCCCCCC#N [1-decanenitrile] + CSCS(C)=O
Settings	excess molar enthalpy [kcal/mol]
x2 = 0.02311	0.0228
x2 = 0.02808	0.029
x2 = 0.05736	0.0595
x2 = 0.07887	0.0808
x2 = 0.1059	0.108
x2 = 0.1267	0.128
x2 = 0.1515	0.149
x2 = 0.186	0.176
x2 = 0.2278	0.204
x2 = 0.2893	0.232
x2 = 0.3382	0.251
x2 = 0.3657	0.259
x2 = 0.4935	0.272
x2 = 0.5572	0.269
x2 = 0.6575	0.251
x2 = 0.7014	0.239
x2 = 0.7482	0.22
x2 = 0.7873	0.201
x2 = 0.8609	0.158
x2 = 0.9468	0.0728
x2 = 0.976	0.0352
x2 = 0.988	0.0193

CCCCCCCCCC#N [1-decanenitrile] + C[S+](C)[O-]
Settings	excess molar enthalpy [kcal/mol]
x2 = 0.03778	0.0338
x2 = 0.04533	0.0418
x2 = 0.07244	0.0646
x2 = 0.08356	0.0746
x2 = 0.1458	0.132
x2 = 0.1516	0.137
x2 = 0.1578	0.141
x2 = 0.2138	0.183
x2 = 0.232	0.195
x2 = 0.3492	0.256
x2 = 0.4404	0.285
x2 = 0.52	0.299
x2 = 0.5471	0.302
x2 = 0.5564	0.304
x2 = 0.6253	0.301
x2 = 0.7275	0.282
x2 = 0.7979	0.251
x2 = 0.9212	0.139
x2 = 0.962	0.0765
x2 = 0.9868	0.0295

CCCCCCCCCCC#N [1-decylcyanide] + CSCS(C)=O
Settings	excess molar enthalpy [kcal/mol]
x2 = 0.02536	0.029
x2 = 0.04055	0.0463
x2 = 0.04193	0.0496
x2 = 0.07582	0.0856
x2 = 0.07724	0.0867
x2 = 0.1217	0.127
x2 = 0.1402	0.142
x2 = 0.1596	0.159
x2 = 0.1889	0.181
x2 = 0.2628	0.223
x2 = 0.2767	0.231
x2 = 0.3234	0.252
x2 = 0.4218	0.278
x2 = 0.5052	0.286
x2 = 0.77	0.237
x2 = 0.8316	0.202
x2 = 0.8694	0.17
x2 = 0.9043	0.138
x2 = 0.9095	0.132
x2 = 0.9464	0.0864
x2 = 0.9933	0.0131

CCCCCCCCCCC#N [1-decylcyanide] + C[S+](C)[O-]
Settings	excess molar enthalpy [kcal/mol]
x2 = 0.02797	0.0287
x2 = 0.05445	0.0548
x2 = 0.09234	0.0936
x2 = 0.1207	0.119
x2 = 0.1811	0.175
x2 = 0.1853	0.178
x2 = 0.2855	0.249
x2 = 0.3924	0.296
x2 = 0.5139	0.322
x2 = 0.5302	0.322
x2 = 0.6423	0.322
x2 = 0.7161	0.308
x2 = 0.8292	0.254
x2 = 0.8917	0.195
x2 = 0.9298	0.145
x2 = 0.9772	0.0547
x2 = 0.98	0.0491
x2 = 0.9927	0.0191

CCCCCCCCCCCCC#N [dodecanecarbonitrile] + CSCS(C)=O
Settings	excess molar enthalpy [kcal/mol]
x2 = 0.06513	0.0772
x2 = 0.0823	0.104
x2 = 0.1316	0.15
x2 = 0.2014	0.209
x2 = 0.265	0.248
x2 = 0.3508	0.282
x2 = 0.367	0.289
x2 = 0.4233	0.301
x2 = 0.5443	0.306
x2 = 0.6344	0.294
x2 = 0.7341	0.264
x2 = 0.7878	0.237
x2 = 0.8039	0.227
x2 = 0.9082	0.138
x2 = 0.9683	0.0588
x2 = 0.9847	0.0293

CCCCCCCCCCCCC#N [dodecanecarbonitrile] + C[S+](C)[O-]
Settings	excess molar enthalpy [kcal/mol]
x2 = 0.02177	0.0197
x2 = 0.06754	0.0683
x2 = 0.09519	0.0952
x2 = 0.09988	0.104
x2 = 0.1229	0.124
x2 = 0.2202	0.211
x2 = 0.2575	0.237
x2 = 0.2709	0.244
x2 = 0.28	0.253
x2 = 0.4232	0.309
x2 = 0.5464	0.322
x2 = 0.6358	0.318
x2 = 0.7394	0.297
x2 = 0.7753	0.283
x2 = 0.8034	0.269
x2 = 0.8609	0.226
x2 = 0.9001	0.181
x2 = 0.9286	0.144
x2 = 0.9571	0.0958
x2 = 0.9821	0.0459

CCCCCCC#N [heptanenitrile] + CSCS(C)=O
Settings	excess molar enthalpy [kcal/mol]
x2 = 0.02045	0.0195
x2 = 0.05221	0.048
x2 = 0.08567	0.0762
x2 = 0.09776	0.0854
x2 = 0.1935	0.143
x2 = 0.2208	0.157
x2 = 0.2701	0.177
x2 = 0.3893	0.208
x2 = 0.4914	0.216
x2 = 0.579	0.212
x2 = 0.7478	0.171
x2 = 0.8609	0.111
x2 = 0.936	0.0591
x2 = 0.9576	0.0395
x2 = 0.9714	0.0275

CCCCCCC#N [heptanenitrile] + C[S+](C)[O-]
Settings	excess molar enthalpy [kcal/mol]
x2 = 0.02225	0.0157
x2 = 0.07063	0.0501
x2 = 0.08316	0.059
x2 = 0.119	0.0815
x2 = 0.1747	0.116
x2 = 0.1851	0.123
x2 = 0.2248	0.142
x2 = 0.2423	0.153
x2 = 0.3049	0.179
x2 = 0.3581	0.199
x2 = 0.3605	0.201
x2 = 0.4935	0.23
x2 = 0.5772	0.233
x2 = 0.6522	0.226
x2 = 0.7056	0.214
x2 = 0.8946	0.114
x2 = 0.9545	0.0549
x2 = 0.9792	0.0267

CCCCCC#N [hexanenitrile] + CSCS(C)=O
Settings	excess molar enthalpy [kcal/mol]
x2 = 0.01678	0.013
x2 = 0.02979	0.0247
x2 = 0.05841	0.0472
x2 = 0.07605	0.0589
x2 = 0.1435	0.103
x2 = 0.1944	0.13
x2 = 0.2184	0.141
x2 = 0.2608	0.158
x2 = 0.3826	0.188
x2 = 0.4382	0.193
x2 = 0.4785	0.194
x2 = 0.5751	0.187
x2 = 0.7307	0.15
x2 = 0.8373	0.107
x2 = 0.9177	0.0609
x2 = 0.9392	0.0468
x2 = 0.9784	0.0178

CCCCCC#N [hexanenitrile] + C[S+](C)[O-]
Settings	excess molar enthalpy [kcal/mol]
x2 = 0.07452	0.0546
x2 = 0.09271	0.0665
x2 = 0.1474	0.1
x2 = 0.1952	0.125
x2 = 0.2583	0.154
x2 = 0.3135	0.174
x2 = 0.3528	0.185
x2 = 0.4343	0.201
x2 = 0.4908	0.207
x2 = 0.5806	0.205
x2 = 0.7154	0.181
x2 = 0.842	0.129
x2 = 0.8892	0.0984
x2 = 0.9559	0.0454
x2 = 0.9855	0.0149

CCCCCCCCCCCC#N [n-dodecanenitrile] + CSCS(C)=O
Settings	excess molar enthalpy [kcal/mol]
x2 = 0.03008	0.0375
x2 = 0.03781	0.0476
x2 = 0.09203	0.107
x2 = 0.1008	0.114
x2 = 0.1789	0.178
x2 = 0.207	0.198
x2 = 0.2152	0.204
x2 = 0.3197	0.261
x2 = 0.3517	0.27
x2 = 0.5024	0.3
x2 = 0.5857	0.301
x2 = 0.7084	0.277
x2 = 0.8115	0.223
x2 = 0.8979	0.148
x2 = 0.9592	0.0667
x2 = 0.9865	0.0238

CCCCCCCCCCCC#N [n-dodecanenitrile] + C[S+](C)[O-]
Settings	excess molar enthalpy [kcal/mol]
x2 = 0.02506	0.0231
x2 = 0.02612	0.0261
x2 = 0.07491	0.0764
x2 = 0.09988	0.104
x2 = 0.1665	0.168
x2 = 0.1791	0.185
x2 = 0.1948	0.194
x2 = 0.2522	0.243
x2 = 0.3366	0.293
x2 = 0.4308	0.327
x2 = 0.562	0.341
x2 = 0.7592	0.298
x2 = 0.8602	0.231
x2 = 0.8956	0.193
x2 = 0.9461	0.114
x2 = 0.9649	0.08
x2 = 0.9886	0.0287

CCCCCCCCC#N [nonanenitrile] + CSCS(C)=O
Settings	excess molar enthalpy [kcal/mol]
x2 = 0.01839	0.0199
x2 = 0.03954	0.0411
x2 = 0.08357	0.0801
x2 = 0.1186	0.108
x2 = 0.175	0.149
x2 = 0.2257	0.178
x2 = 0.2686	0.199
x2 = 0.3721	0.232
x2 = 0.3812	0.234
x2 = 0.4654	0.25
x2 = 0.5564	0.253
x2 = 0.6409	0.241
x2 = 0.779	0.195
x2 = 0.8417	0.155
x2 = 0.8806	0.126
x2 = 0.9058	0.106
x2 = 0.9564	0.0531
x2 = 0.9784	0.0266

CCCCCCCCC#N [nonanenitrile] + C[S+](C)[O-]
Settings	excess molar enthalpy [kcal/mol]
x2 = 0.05896	0.0512
x2 = 0.07322	0.0623
x2 = 0.09784	0.0826
x2 = 0.1285	0.107
x2 = 0.1721	0.141
x2 = 0.1898	0.153
x2 = 0.2365	0.183
x2 = 0.2408	0.187
x2 = 0.2698	0.204
x2 = 0.2836	0.211
x2 = 0.3841	0.252
x2 = 0.4577	0.272
x2 = 0.5425	0.285
x2 = 0.5442	0.285
x2 = 0.5569	0.285
x2 = 0.703	0.271
x2 = 0.7734	0.245
x2 = 0.8496	0.197
x2 = 0.8991	0.15
x2 = 0.939	0.103
x2 = 0.9712	0.0531
x2 = 0.9917	0.017

CCCCCCCC#N [octanenitrile] + CSCS(C)=O
Settings	excess molar enthalpy [kcal/mol]
x2 = 0.02232	0.0208
x2 = 0.06732	0.064
x2 = 0.1083	0.0967
x2 = 0.16	0.133
x2 = 0.2232	0.17
x2 = 0.3476	0.216
x2 = 0.5207	0.237
x2 = 0.6218	0.228
x2 = 0.7086	0.206
x2 = 0.7769	0.177
x2 = 0.869	0.122
x2 = 0.9129	0.0878
x2 = 0.9266	0.0774
x2 = 0.9548	0.0497
x2 = 0.9879	0.0154

CCCCCCCC#N [octanenitrile] + C[S+](C)[O-]
Settings	excess molar enthalpy [kcal/mol]
x2 = 0.02667	0.0195
x2 = 0.037	0.0293
x2 = 0.1176	0.0892
x2 = 0.18	0.134
x2 = 0.2399	0.169
x2 = 0.3293	0.213
x2 = 0.3877	0.233
x2 = 0.4654	0.251
x2 = 0.552	0.261
x2 = 0.6233	0.256
x2 = 0.7022	0.244
x2 = 0.8267	0.189
x2 = 0.8785	0.149
x2 = 0.9546	0.068
x2 = 0.9616	0.057
x2 = 0.992	0.0135

CCCCCCCCCCCCCC#N [tetradecanenitrile] + CSCS(C)=O
Settings	excess molar enthalpy [kcal/mol]
x2 = 0.03538	0.0412
x2 = 0.05372	0.0689
x2 = 0.08438	0.103
x2 = 0.1289	0.153
x2 = 0.1565	0.177
x2 = 0.1984	0.21
x2 = 0.3348	0.281
x2 = 0.505	0.304
x2 = 0.6332	0.291
x2 = 0.6721	0.283
x2 = 0.8155	0.229
x2 = 0.8867	0.172
x2 = 0.9123	0.145
x2 = 0.9566	0.0871
x2 = 0.9858	0.0352

CCCCCCCCCCCCCC#N [tetradecanenitrile] + C[S+](C)[O-]
Settings	excess molar enthalpy [kcal/mol]
x2 = 0.02407	0.0307
x2 = 0.06045	0.0671
x2 = 0.1219	0.133
x2 = 0.1415	0.154
x2 = 0.2193	0.219
x2 = 0.2527	0.244
x2 = 0.3063	0.279
x2 = 0.4181	0.323
x2 = 0.4877	0.339
x2 = 0.6186	0.345
x2 = 0.7619	0.311
x2 = 0.8716	0.229
x2 = 0.8962	0.201
x2 = 0.911	0.176
x2 = 0.9532	0.109
x2 = 0.9692	0.0793
x2 = 0.9809	0.0491
